According to a compilation of properties of binary mixtures (doi:10.1021/acs.jced.9b01032):

Assay: xn = mol fraction of the nth substance listed
Details: 93.2 kPa

NC=O + CCCC[n+]1ccn(C)c1.F[P-](F)(F)(F)(F)F
x2 = 0
Details | speed of sound [m/s]
288.15 K | 1619
298.15 K | 1598
303.15 K | 1588

CCCC[n+]1ccn(C)c1.F[P-](F)(F)(F)(F)F + NC=O
speed of sound [m/s]
Details | 288.15 K | 293.15 K | 298.15 K | 303.15 K
x1 = 0.0502 | 1587 | 1576 | 1565 | 1554
x1 = 0.0995 | 1563 | 1552 | – | 1529
x1 = 0.1488 | 1545 | 1534 | 1522 | 1511
x1 = 0.2006 | – | – | 1508 | 1497
x1 = 0.3001 | 1513 | 1501 | – | 1478
x1 = 0.3821 | – | 1491 | 1479 | 1468
x1 = 0.4985 | 1494 | 1482 | 1470 | 1458
x1 = 0.595 | – | 1476 | 1464 | –
x1 = 0.6976 | 1484 | – | – | 1448
x1 = 0.7792 | 1482 | – | – | 1445
x1 = 0.8902 | 1480 | 1467 | 1454 | 1442
x1 = 1 | 1478 | 1464 | – | 1439
